The results in this text go back to patent publication US10556865B2, “Synergistic herbicidal composition containing certain pyridine or pyrimidine carboxylic acids and certain cereal and rice herbicides” (Dow AgroSciences, LLC, priority 2007, dated 2020).

Molecules are shown by their SMILES. Read-outs that look alike come from different tables or passages of the source.

Type in all cases: in vivo
In assay [1] the test system is annual ryegrass (Lolium multiflorum L; LOLMG). The experiment in a line: Postemergence herbicidal activity of mixtures in cereal crops (greenhouse, visual injury). The procedure, abridged:
(§1)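 Plants at second-third true leaf stage sprayed postemergence at 187 L/ha with compound and second cereal herbicide alone and combined; solvent blank controls. Visual injury scored 0-100% versus controls after 20-22 days; expected mixture effects by Colby's equation.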

Assay [2] has as its system windgrass (Apera spica-venti L; APESV). The assay is described as above. The note with it: for pest or weed control at 17.5 g/ha / pest or weed control at 35 g/ha / pest or weed control at 70 g/ha / pest or weed control at 140 g/ha / pest or weed control at 8.75 g/ha: Apera spica-venti, post-emergence, read-out: APESV Ob. The procedure, abridged: as §1
Assay [3] concerns Fimbristylis miliacea (L.) VAHL (FIMMI). The experiment in a line: Herbicidal mixtures for weed control in transplanted paddy rice (in-water application, visual % injury). The procedure, abridged: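 Weeds sown in flooded puddled mineral soil (pH ~7.3–7.8, ~1.0% organic matter) and treated at second–third true leaf stage by injecting acetone/2.5% Agri-dex stock into the paddy water. A, C and D dosed as acid equivalent, partner herbicides as active ingredient. Injury scored visually after 3 weeks in greenhouse, 0–100% versus untreated plants.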

`COC(=O)c1nc(-c2ccc(Cl)c(OC)c2F)cc(N)c1Cl` [Compound A Methyl, 4-amino-3-chloro-6-(4-chloro-2-fluoro-3-methoxyphenyl)pyridine-2-carboxylic acid methyl ester]: the “LOLMG Ob” value in assay [1] (17.5 g/ha, Table 1) was determined as 20%; in assay [1] (17.5 g/ha, Table 2) it was 20%; in assay [1] (35 g/ha, Table 1) it was 40%; in assay [1] (35 g/ha, Table 2), 40%; in assay [1] (70 g/ha, Table 1), 0%; in assay [1] (70 g/ha, Table 2), 60%. For the same molecule, the pest or weed control at 17.5 g/ha in assay [2] (17.5 g/ha, Table 1) was 20%; in assay [2] (17.5 g/ha, Table 4), 0%; in assay [2] (17.5 g/ha, Table 5), 0%. Moreover, the pest or weed control at 35 g/ha came to 20% in assay [2] (35 g/ha, Table 1); 10% in assay [2] (35 g/ha, Table 3); 10% in assay [2] (35 g/ha, Table 4); 10% in assay [2] (35 g/ha, Table 5). Also, the pest or weed control at 70 g/ha in assay [2] (70 g/ha, Table 1) came to 30%; in assay [2] (70 g/ha, Table 3) it was 10%; in assay [2] (70 g/ha, Table 4) it was 10%; in assay [2] (70 g/ha, Table 5) it was 10%. The “% Injury Ob” value in assay [3] (17.5 g/ha alone) worked out at 20%. In assay [3] (Compound A Methyl 17.5 g/ha alone), the “% Injury FIMMI Ob” value came out at 20%.

As to `COc1c(Cl)ccc(-c2cc(N)c(Cl)c(C(=O)O)n2)c1F` [Compound A TEA, 4-amino-3-chloro-6-(4-chloro-2-fluoro-3-methoxyphenyl)pyridine-2-carboxylic acid], the “LOLMG Ob” value in assay [1] (35 g/ha, Table 13) was determined as 0%; in assay [1] (70 g/ha, Table 13), 0%; in assay [1] (140 g/ha, Table 13) it was 0%. Further, the pest or weed control at 35 g/ha is 8% in assay [2] (35 g/ha, Table 14); 3% in assay [2] (35 g/ha, Table 15); 3% in assay [2] (35 g/ha, Table 16); 3% in assay [2] (35 g/ha, Table 17); 8% in assay [2] (35 g/ha, Table 18). In addition, the pest or weed control at 70 g/ha in assay [2] (70 g/ha, Table 14) was 13%; in assay [2] (70 g/ha, Table 15), 0%; in assay [2] (70 g/ha, Table 16), 0%; in assay [2] (70 g/ha, Table 17), 0%; in assay [2] (70 g/ha, Table 18) it was 13%. Moreover, the pest or weed control at 140 g/ha in assay [2] (Table 14) came out at 15%; in assay [2] (Table 15), 4%; in assay [2] (Table 16), 4%; in assay [2] (Table 17) it was 4%; in assay [2] (Table 18), 15%. The entries for the “% Injury Ob” value in assay [3] (17.5 g/ha alone), in assay [3] (35 g/ha alone) and in assay [3] (70 g/ha alone) were 30%, 0% and 0%, respectively. The “% Injury FIMMI Ob” value in assay [3] (Compound A TEA 17.5 g/ha alone) is 30%.

On to `COC(=O)c1nc(-c2ccc(Cl)c(OC)c2F)nc(N)c1Cl` [Compound B Methyl, 6-amino-5-chloro-2-(4-chloro-2-fluoro-3-methoxyphenyl)pyrimidine-4-carboxylic acid methyl ester], for which the “LOLMG Ob” value in assay [1] (8.75 g/ha) was 0%; in assay [1] (8.75 g/ha, Table 22), 0%; in assay [1] (17.5 g/ha), 0%; in assay [1] (17.5 g/ha, Table 22) it was 0%; in assay [1] (35 g/ha), 0%; in assay [1] (35 g/ha, Table 22), 0%. Moreover, the “LOLMG Ob” value in assay [1] (70 g/ha) is 0%; in assay [1] (70 g/ha, Table 22), 0%. The “APESV Ob” value in assay [2] (8.75 g/ha), in assay [2] (17.5 g/ha), in assay [2] (35 g/ha) and in assay [2] (70 g/ha) was 0% each time. For the same molecule, the pest or weed control at 8.75 g/ha in assay [2] (8.75 g/ha, Table 20) came to 0%; in assay [2] (8.75 g/ha, Table 22) it was 0%. The pest or weed control at 17.5 g/ha in assay [2] (17.5 g/ha, Table 20) was 0%; in assay [2] (17.5 g/ha, Table 22), 0%. Also, the pest or weed control at 35 g/ha in assay [2] (35 g/ha, Table 20) is 0%; in assay [2] (35 g/ha, Table 22), 0%. In addition, the pest or weed control at 70 g/ha in assay [2] (70 g/ha, Table 20) was 0%; in assay [2] (70 g/ha, Table 22), 0%.

As to `O=C(O)c1c(Cl)ccc2cc(Cl)cnc12` [Quinclorac], the “% Injury FIMMI Ob” value in assay [3] (Quinclorac 140 g/ha alone (Compound A Methyl half)) and in assay [3] (Quinclorac 140 g/ha alone (Compound A TEA half)) was 0% in each case.
